Assay results as given in US9409882B2, “Pyridine derivatives” (Hoffmann-La Roche Inc., priority 2012, dated 2016).

Experiments:
human Cat L = human Cat L (Homo sapiens (Human), UniProt P07711); assay: Cathepsin enzyme inhibition assay (fluorogenic peptide substrate), human Cat L; type: biochemical; details: human Cat L 1 nM, substrate Z-Val-Val-Arg-AMC 20 μM, pH 6.5
Procedure: (§1) Cathepsin Enzyme Inhibition Assay
(§2) Enzyme activity is measured by observing the increase in fluorescence intensity caused by cleavage of a peptide substrate containing a fluorophore whose emission is quenched in the intact peptide.
(§3) Assay buffer: 100 mM potassium phosphate pH 6.5, EDTA-Na 5 mM, Triton X-100 0.001%, DTT 5 mM.
(§4) Enzymes (all at 1 nM): human and mouse Cathepsin S, Cat K, Cat B, Cat L.
(§5) Substrate (20 μM): Z-Val-Val-Arg-AMC, except for Cat K which uses Z-Leu-Arg-AMC (both from Bachem).
(§6) AMC=7-Amino-4-Methyl-Coumarin.
(§7) Excitation 360 nm, Emission 465 nm.
(§8) Enzyme is added to the substance dilutions in 96-well microtitre plates and the reaction is started with substrate. […] IC50 are calculated by standard methods.
(§9) Inhibition of human Cat S, mouse Cat S, human Cat K, human Cat B, human Cat L and mouse Cat L have been measured separately.

human Cathepsin S = human Cathepsin S (Homo sapiens (Human), UniProt P25774); assay: Cathepsin enzyme inhibition assay (fluorogenic peptide substrate), human Cat S; type: biochemical; details: human Cat S 1 nM, substrate Z-Val-Val-Arg-AMC 20 μM, pH 6.5
Procedure: as §1, §2, §3, §4, §5, §6, §7, §8, §9

Sequence of human Cathepsin S (P25774 115-331): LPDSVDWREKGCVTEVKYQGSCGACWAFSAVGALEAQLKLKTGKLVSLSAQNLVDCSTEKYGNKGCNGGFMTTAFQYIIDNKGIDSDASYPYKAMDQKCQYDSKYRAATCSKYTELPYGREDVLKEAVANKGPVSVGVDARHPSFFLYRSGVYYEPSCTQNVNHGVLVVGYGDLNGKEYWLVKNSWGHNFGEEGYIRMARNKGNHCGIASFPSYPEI
Sequence of human Cat L (P07711 114-333): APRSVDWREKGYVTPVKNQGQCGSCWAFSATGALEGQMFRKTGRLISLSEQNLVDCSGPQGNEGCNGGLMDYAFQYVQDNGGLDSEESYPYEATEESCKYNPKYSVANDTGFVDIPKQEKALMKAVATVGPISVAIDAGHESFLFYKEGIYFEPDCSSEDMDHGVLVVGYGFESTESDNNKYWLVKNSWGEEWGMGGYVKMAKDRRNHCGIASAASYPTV

IC50 (human Cat L) | IC50 (human Cathepsin S) | SMILES
31 nM | 0.7 nM | N#CC1(NC(=O)[C@@H]2C[C@@H](S(=O)(=O)c3ccccc3F)CN2C(=O)C2(c3ncc(Cl)cc3F)CC2)CC1 [Example 42, (2S,4R)-1-[1-(5-Chloro-3-fluoro-pyridin-2-yl)-cyclopropanecarbonyl]-4-(2-fluoro-benzenesulfonyl)-pyrrolidine-2-carboxylic acid (1-cyano-cyclopropyl)-amide]
90.6 nM | 17 nM | N#CC1(NC(=O)[C@@H]2C[C@@H](S(=O)(=O)c3ccccc3-n3cccn3)CN2C(=O)C2(c3ncc(I)cc3F)CC2)CC1 [Example 43, (2S,4R)-1-[1-(3-Fluoro-5-iodo-pyridin-2-yl)-cyclopropanecarbonyl]-4-(2-pyrazol-1-yl-benzenesulfonyl)-pyrrolidine-2-carboxylic acid (1-cyano-cyclopropyl)-amide]
5640 nM | 2.8 nM | Cc1cccc(S(=O)(=O)[C@@H]2C[C@@H](C(=O)NC3(C#N)CC3)N(C(=O)C3(c4ncc(Cl)cc4F)CC3)C2)n1 [Example 23, (2S,4R)-1-[1-(5-Chloro-3-fluoro-pyridin-2-yl)-cyclopropanecarbonyl]-4-(6-methylpyridine-2-sulfonyl)-pyrrolidine-2-carboxylic acid (1-cyano-cyclopropyl)-amide]
